The record followed here is US20230295133A1, “PROCESS FOR PREPARING A COMPOUND USEFUL TO TREAT MYCOSES” (PULMOCIDE LIMITED, priority 2014, published 2023).

Each structure is given as a SMILES string. Converted amounts (≈) assume the structure as drawn. Where only a bound is given, the exact number is not on record here.

Data set [1] can be described thus: Cell viability: resazurin assay. The conditions noted are these: human, BEAS2B cells; n = 3-5. It counts as cell-based, human. The method, then: BEAS2B cells were seeded in 384-well plates (100 µL; 3000 / well /; BD Falcon, Catalogue No 353962) in RPMI-LHC8 (RPMI-1640 and LHC8 media combined in equal proportions) one day before experimentation. For cell-free control wells, RPMI-LHC8 (100 µL) was added. Test compounds (0.5 µL of a DMSO solution) were added to give a final DMSO concentration of 0.5% using an Integra VIAFLO 96 (Integra, Zizers, Switzerland). BEAS2B cells were incubated with each test compound for 1 day (37° C. / 5% CO2 in RPMI-LHC8). After addition of resazurin stock solution (5 µL, 0.04%) the plates were incubated for a further 4 hr (37° C. / 5% CO2). The fluorescence of each well at 545 nm (excitation) and 590 nm (emission) was determined using a multi-scanner (Clariostar: BMG Labtech). The percentage loss of cell viability was calculated for each well relative to vehicle (0.5% DMSO) treatment. Where appropriate, a CC50 value was calculated from the concentration-response curve generated from the concentration-response curve for each test compound.

For data set [2], the system named is Aspergillus fumigatus L98H (TR34/L98H). Nature of the data set: Broth microdilution assay (modified EUCAST). It counts as cell-based. The settings on record: Aspergillus fumigatus, read-out: MIC75 against Aspergillus fumigatus isolate L98H. The procedure: (§1) This assay was conducted using a modified method published by EUCAST (Rodriguez-Tudela et al., 2008). Spores of aspergillus fumigatus (NCPF2010, NCPF7010 (Methionine 220 mutation), NCPF7099 (Glycine G54 mutation) from Public Health England, Wiltshire; TR34/L98H mutants from St Louis Hospital, Paris, France) were cultured in Sabouraud dextrose agar for 3 days. A stock spore suspension was prepared from a Sabouraud dextrose agar culture by washing with PBS-tween (10 mL; PBS containing 0.05% Tween-20, 100 U/mL Penicillin and 100 U/mL Streptomycin). The spore count was assessed using a Neubauer haemocytometer and then adjusted to 10^6 spores/mL with PBS. A working suspension of spores (2 × 10^5 spores/mL) was prepared in filter sterilised, BSA MOPS RPMI-1640 (50 mL; RPMI-1640 containing 2 mM L-glutamine, 0.5% BSA, 2% glucose, 0.165 M MOPS, buffered to pH 7 with NaOH). For the assay, BSA MOPS RPMI-1640 (50 µL/well) was added throughout the 384-well plate (Catalogue number 353962, BD Falcon, Oxford, UK) first. Test compounds (0.5 µL DMSO solution) were then added in quadruplicate using an Integra VIAFLO 96 (Integra, Zizers, Switzerland), and mixed well using a plate mixer. Subsequently 50 µL of the working spore suspension prepared above was added to all wells except non-spore control wells. For non-spore control wells, BSA MOPS-RPMI solution (50 µL/well) was added instead. The plate was covered with a plastic lid, and incubated (35° C. with ambient air) for 48 hr. The OD of each well at 530 nm was determined using a multi-scanner (Clariostar: BMG, Buckinghamshire, UK). The percentage inhibition for each well was calculated and the MIC50, MIC75 and MIC90 values were calculated from the concentration-response curve generated for each test compound.

In data set [3] the test system is Aspergillus fumigatus NCPF2010. Nature of the data set: Broth microdilution assay (modified EUCAST). It counts as cell-based. The settings on record: Aspergillus fumigatus, NCPF2010, read-out: MIC75 against Aspergillus fumigatus isolate NCPF2010. The method, then: as §1
The subject of data set [4] is Aspergillus fumigatus NCPF7099. The data set can be described thus: Broth microdilution assay (modified EUCAST). It counts as cell-based. The settings on record: Aspergillus fumigatus, NCPF7099, n = 3, read-out: MIC75 against Aspergillus fumigatus isolate NCPF7099. The method, then: as §1
In data set [5] the test system is Aspergillus fumigatus NCPF7100. Nature of the data set: Broth microdilution assay (modified EUCAST). It counts as cell-based. The settings on record: Aspergillus fumigatus, NCPF7100, read-out: MIC75 against Aspergillus fumigatus isolate NCPF7100.
In data set [6] the test system is aspergillus fumigatus infection of BEAS2B cells. The data set can be described thus: Aspergillus fumigatus infection of bronchial epithelial cells (GM in supernatant). It counts as cell-based. The settings on record: bronchial epithelial cells infected with Aspergillus fumigatus; read-out: MIC50 Infection of BEAS2B cells. The procedure: BEAS2B cells were seeded in 96-well plates (100 µL; 30,000 cells / well; Catalogue No 3596, Sigma Aldrich, Dorset, UK) in 10% FBS RPMI-1640 and were then incubated (37° C., 5% CO2) for one day before experimentation. Test compounds (0.5 µL DMSO solution) or vehicle (DMSO) were added to each well to give a final DMSO concentration of 0.5%. BEAS2B cells were incubated with test compounds for 1 hr (35° C., 5% CO2) before infection with aspergillus fumigatus (20 µL; Public Health England) conidia suspension (0.5×10^5 /ml in 10% FBS RPMI-1640). The plate was incubated for 24 hr (35° C., 5% CO2). Supernatant (50 µL) was collected and transferred to a PCR plate (Catalogue No L1402-9700, Starlab, Milton Keynes, UK), which was frozen (-20° C.) until use. After thawing, supernatant (5 µL) was diluted 1:20 by adding R7-PBS solution (95 µL; 1:4 R7 to PBS; Bio-Rad Laboratories, Redmond, WA, USA). GM levels in these samples (50 µL) were measured using Platelia GM-EIA kits (Bio-Rad Laboratories, Redmond, WA, USA). The percentage inhibition for each well was calculated and the IC50 value was calculated from the concentration-response curve generated for each test compound.

The subject of data set [7] is aspergillus fumigatus (ATCC 13073 [strain: NIH 5233]). Nature of the data set: In vivo anti-fungal activity, prophylactic and therapeutic treatment of infected immunocompromised neutropenic mice. Set-up: species or system A/J mice. The conditions noted are these: prophylactic treatment (days 0, 1, 2 and 3); 0.4 mg/mL.

Regarding `Cc1cc(N2CCN(c3ccc(C(=O)Nc4ccc(F)c(F)c4)cc3)CC2)ccc1OC[C@@H]1CO[C@@](Cn2cncn2)(c2ccc(F)cc2F)C1` [Example 27, 4-(4-(4-(((3R, 5R)-5-((1H-1,2,4-triazol-1-yl)methyl)-5-(2,4-difluorophenyl)tetrahydrofuran-3-yl)methoxy)-3-methylphenyl)piperazin-1-yl)-N-(3,4-difluorophenyl)benzamide], the CC50 at 1 day in data set [1] was above 14.3 µM. Also, the MIC was 0.136 µM (≈ 0.0953 µg/mL) in data set [2], 0.0193 µM (≈ 0.0135 µg/mL) in data set [3], 0.0127 µM (≈ 0.0089 µg/mL) in data set [4] and 0.0223 µM (≈ 0.0156 µg/mL) in data set [5].

As to `Cc1cc(N2CCN(c3ccc(C(=O)Nc4ccc(OC(F)F)c(F)c4)cc3)CC2)ccc1OC[C@@H]1CO[C@@](Cn2cncn2)(c2ccc(F)cc2F)C1` [Example 25, 4-(4-(4-(((3R,5R)-5-((1H-1,2,4-triazol-1-yl)methyl)-5-(2,4-difluorophenyl)tetrahydrofuran-3-yl)methoxy)-3-methylphenyl)piperazin-1-yl)-N-(4-(difluoromethoxy)-3-fluorophenyl) benzamide], the MIC50 in data set [6] was determined as 0.23 µM (≈ 0.172 µg/mL). This compound returned a CC50 at 1 day in data set [1] above 13.4 µM. The MIC in data set [2] worked out at 0.0659 µM (≈ 0.0493 µg/mL); in data set [3], 0.0845 µM (≈ 0.0633 µg/mL); in data set [4], 0.0251 µM (≈ 0.0188 µg/mL); in data set [5] it was 0.0476 µM (≈ 0.0356 µg/mL).

As to `Cc1cc(N2CCN(c3ccc(C(=O)Nc4ccc(F)cc4)c(C)c3)CC2)ccc1OC[C@@H]1CO[C@@](Cn2cncn2)(c2ccc(F)cc2F)C1` [Example 33, 4-(4-(4-(((3R, 5R)-5-((1H-1,2,4-triazol-1-yl)methyl)-5-(2,4-difluorophenyl)tetrahydrofuran-3-yl)methoxy)-3-methylphenyl)piperazin-1-yl)-N-(4-fluorophenyl)-2-methylbenzamide], the MIC50 in data set [6] came out at 0.0435 µM (≈ 0.0303 µg/mL). Moreover, the CC50 at 1 day in data set [1] is above 14.4 µM. In addition, the MIC in data set [2] amounted to 0.0679 µM (≈ 0.0473 µg/mL); in data set [3] it was 0.0135 µM (≈ 0.00941 µg/mL); in data set [4], 0.0489 µM (≈ 0.0341 µg/mL); in data set [5], 0.0236 µM (≈ 0.0164 µg/mL).

`Cc1cc(N2CCN(c3ccc(C(=O)Nc4ccc(Cl)cc4F)cc3)CC2)ccc1OC[C@@H]1CO[C@@](Cn2cncn2)(c2ccc(F)cc2F)C1` [Example 29, 4-(4-(4-(((3R, 5R)-5-((1H-1,2,4-triazol-1-yl)methyl)-5-(2,4-difluorophenyl)tetrahydrofuran-3-yl)methoxy)-3-methylphenyl)piperazin-1-yl)-N-(4-chloro-2-fluorophenyl)benzamide]: the MIC50 in data set [6] amounted to 0.0145 µM (≈ 0.0104 µg/mL). The compound also came in with a CC50 at 1 day in data set [1] above 13.9 µM. Besides, the MIC in data set [2] came out at 0.12 µM (≈ 0.0861 µg/mL); in data set [3], 0.0285 µM (≈ 0.0204 µg/mL); in data set [4], 0.037 µM (≈ 0.0265 µg/mL); in data set [5], 0.0538 µM (≈ 0.0386 µg/mL).

On to `Cc1cc(N2CCN(c3ccc(C(=O)Nc4ccc(C#N)cc4)cc3)CC2)ccc1OC[C@@H]1CO[C@@](Cn2cncn2)(c2ccc(F)cc2F)C1` [Example 9, 4-(4-(4-(((3R,5R)-5-((1H-1,2,4-triazol-1-yl)methyl)-5-(2,4-difluorophenyl)tetrahydrofuran-3-yl)methoxy)-3-methylphenyl)piperazin-1-yl)-N-(4-cyanophenyl)benzamide], for which, in data set [6], the MIC50 was 0.00521 µM (≈ 0.00359 µg/mL). The CC50 at 1 day in data set [1] was above 14.5 µM. For the same compound, the MIC came to 0.114 µM (≈ 0.0786 µg/mL) in data set [2], 0.0291 µM (≈ 0.0201 µg/mL) in data set [3], 0.00739 µM (≈ 0.0051 µg/mL) in data set [4] and 0.0232 µM (≈ 0.016 µg/mL) in data set [5].

Take `Cc1cc(N2CCN(c3ccc(C(=O)Nc4c(F)cc(F)cc4F)cc3)CC2)ccc1OC[C@@H]1CO[C@@](Cn2cncn2)(c2ccc(F)cc2F)C1` [Example 31, 4-(4-(4-(((3R, 5R)-5-((1H-1,2,4-triazol-1-yl)methyl)-5-(2,4-difluorophenyl)tetrahydrofuran-3-yl)methoxy)3-methylphenyl)piperazin-1-yl)-N-(2,4,6-trifluorophenyl)benzamide]: the MIC50 in data set [6] was 0.0107 µM (≈ 0.00769 µg/mL). The CC50 at 1 day in data set [1] was above 13.9 µM. Further, the MIC in data set [2] was 0.163 µM (≈ 0.117 µg/mL); in data set [3] it was 0.0439 µM (≈ 0.0316 µg/mL); in data set [4] it was 0.0109 µM (≈ 0.00783 µg/mL); in data set [5] it was 0.0679 µM (≈ 0.0488 µg/mL).

As to `Cc1cc(N2CCN(c3ccc(C(=O)Nc4ccc(OC(F)(F)F)cn4)cc3)CC2)ccc1OC[C@@H]1CO[C@@](Cn2cncn2)(c2ccc(F)cc2F)C1` [Example 39, 4-(4-(4-(((3R,5R)-5-((1H-1,2,4-triazol-1-yl)methyl)-5-(2,4-difluorophenyl)tetrahydrofuran-3-yl)methoxy)-3-methylphenyl)piperazin-1-yl)-N-(5-(trifluoromethoxy)pyridin-2-yl)benzamide], the CC50 at 1 day in data set [1] was above 13.3 µM. Also, the MIC in data set [2] was 0.0659 µM (≈ 0.0494 µg/mL); in data set [3] it was 0.052 µM (≈ 0.039 µg/mL).

Turning to `Cc1cc(N2CCN(c3ccc(C(=O)Nc4ccc(Cl)cn4)cc3)CC2)ccc1OC[C@@H]1CO[C@@](Cn2cncn2)(c2ccc(F)cc2F)C1` [Example 41, 4-(4-(4-(((3R, 5R)-5-((1H-1,2,4-triazol-1-yl)methyl)-5-(2,4-difluorophenyl)tetrahydrofuran-3-yl)methoxy)-3-methylphenyl)piperazin-1-yl)-N-(5-chloropyridin-2-yl)benzamide], the CC50 at 1 day in data set [1] is above 14.3 µM. In addition, the MIC came out at 0.261 µM (≈ 0.183 µg/mL) in data set [2] and 0.0576 µM (≈ 0.0403 µg/mL) in data set [3].

`O=C(Nc1ccc(F)cc1)c1ccc(N2CCN(c3ccc(OCC4CO[C@@](Cn5cncn5)(c5ccc(F)cc5F)C4)c(F)c3)CC2)cc1` (stereo in doubt) [Example 17, 4-(4-(4-(((3R, 5R)-5-((1H-1,2,4-triazol-1-yl)methyl)-5-(2,4-difluorophenyl)tetrahydrofuran-3-yl)methoxy)-3-fluorophenyl)piperazin-1-yl)-N-(4-fluorophenyl)benzamide]: the CC50 at 1 day in data set [1] is above 14.6 µM. Besides, the MIC in data set [2] was determined as 0.409 µM (≈ 0.281 µg/mL); in data set [3], 0.00215 µM (≈ 0.00148 µg/mL); in data set [4] it was 0.0185 µM (≈ 0.0127 µg/mL); in data set [5], 0.0133 µM (≈ 0.00913 µg/mL). Further, in data set [7], the “% Inhibition versus Infected Controls, GM in BALF” value was determined as 45%. The “% Inhibition versus Infected Controls, GM in serum” value in data set [7] is recorded as 72%. Moreover, the “% Inhibition versus Infected Controls, Lung Fungal Load” value in data set [7] was determined as 83%.

`N#Cc1ccc(NC(=O)c2ccc(N3CCN(c4ccc(OCC5CO[C@@](Cn6cncn6)(c6ccc(F)cc6F)C5)c(F)c4)CC3)cc2)c(F)c1` (stereo in doubt) [Example 24, 4-(4-(4-(((3R, 5R)-5-((1H-1,2,4-triazol-1-yl)methyl)-5-(2,4-difluorophenyl)tetrahydrofuran-3-yl)methoxy)3-fluorophenyl)piperazin-1-yl)-N-(4-cyano-2-fluorophenyl)benzamide] displayed a CC50 at 1 day in data set [1] above 14.1 µM. The MIC is 0.191 µM (≈ 0.136 µg/mL) in data set [2], 0.0099 µM (≈ 0.00705 µg/mL) in data set [3], 0.0205 µM (≈ 0.0146 µg/mL) in data set [4] and 0.014 µM (≈ 0.00996 µg/mL) in data set [5].
